Experimental data taken from PubChem BioAssay AID248 (DTP/NCI, 2004).
Several values for one entry are separate records, joined by “and”; a condition that tells them apart may be missing. Equal values may be shown once. Inconclusive results and toxic doses are left out. Cut-off read from the data, not from the text of the source: active = T/C of 150% or more; inactive = T/C below 125%.

System: L1210 leukemia ip in BDF1 mice, survival T/C
Assay: NCI In Vivo Anticancer Drug Screen. Data for tumor model L1210 Leukemia (intraperitoneal) in B6D2F1 (BDF1) mice
Conditions: endpoint: mean survival time, higher = longer survival
In short: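 Tumor was transplanted into mice, which were then dosed with test compound or vehicle alone. Survival was recorded for each group, and the treated figure was expressed relative to the control figure.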

[1] = dose: 400.0 mg/kg/injection, schedule: Q01DX001 (ip), vehicle: other
[2] = dose: 100.0 mg/kg/injection, schedule: Q01DX001 (ip), vehicle: carboxymethylcellulose (CMC)
[3] = dose: 200.0 mg/kg/injection, schedule: Q01DX001 (ip), vehicle: carboxymethylcellulose (CMC)
[4] = dose: 400.0 mg/kg/injection, schedule: Q01DX001 (ip), vehicle: carboxymethylcellulose (CMC)
[5] = dose: 100.0 mg/kg/injection, schedule: Q01DX009 (ip), vehicle: Klucel (hydroxypropylcellulose) (HPC)
[6] = dose: 200.0 mg/kg/injection, schedule: Q01DX009 (ip), vehicle: Klucel (hydroxypropylcellulose) (HPC)
[7] = dose: 100.0 mg/kg/injection, schedule: Q01DX009 (ip), vehicle: saline
[8] = dose: 100.0 mg/kg/injection, schedule: Q04DX003 (ip), vehicle: saline
[9] = dose: 200.0 mg/kg/injection, schedule: Q01DX009 (ip), vehicle: saline
[10] = dose: 200.0 mg/kg/injection, schedule: Q04DX003 (ip), vehicle: saline
[11] = dose: 400.0 mg/kg/injection, schedule: Q01DX009 (ip), vehicle: saline
[12] = dose: 400.0 mg/kg/injection, schedule: Q04DX003 (ip), vehicle: saline
[13] = dose: 100.0 mg/kg/injection, schedule: Q01DX001 (ip), vehicle: saline
[14] = dose: 200.0 mg/kg/injection, schedule: Q01DX001 (ip), vehicle: saline
[15] = dose: 400.0 mg/kg/injection, schedule: Q01DX001 (ip), vehicle: saline
[16] = dose: 100.0 mg/kg/injection, schedule: Q04DX003 (ip), vehicle: Klucel (hydroxypropylcellulose) (HPC)
[17] = dose: 200.0 mg/kg/injection, schedule: Q04DX003 (ip), vehicle: Klucel (hydroxypropylcellulose) (HPC)
[18] = dose: 400.0 mg/kg/injection, schedule: Q04DX003 (ip), vehicle: Klucel (hydroxypropylcellulose) (HPC)

Measured: T/C

CC1CN=C(c2ccc(Br)cc2)O1 (configuration not stated)
inactive: dose: 100.0 mg/kg/injection, schedule: Q01DX009 (ip), vehicle: saline with Tween-80 105 % of control | dose: 200.0 mg/kg/injection, schedule: Q01DX009 (ip), vehicle: saline with Tween-80 89 % of control

CC1OC(OC2CCC3(C=O)C4CCC5(C)C(C6=CC(=O)OC6)CCC5(O)C4CCC3(O)C2)C(O)C(O)C1O (configuration not stated)
inactive: dose: 3.0 mg/kg/injection, schedule: Q01DX001 (ip), vehicle: carboxymethylcellulose (CMC) 96 % of control | dose: 6.0 mg/kg/injection, schedule: Q01DX001 (ip), vehicle: carboxymethylcellulose (CMC) 98 % of control

COC(=O)c1cc(=O)c2cc(C(C)=O)ccc2[nH]1
inactive: dose: 100.0 mg/kg/injection, schedule: Q01DX001 (ip), vehicle: other 95 % of control | dose: 200.0 mg/kg/injection, schedule: Q01DX001 (ip), vehicle: other 94 % of control and 89 % of control | [1] 105 % of control and 90 % of control

COC1OC(COC(=O)c2ccccc2)C(OS(=O)(=O)c2ccc(C)cc2)C1OCc1ccccc1 (configuration not stated)
inactive: dose: 50.0 mg/kg/injection, schedule: Q01DX001 (ip), vehicle: carboxymethylcellulose (CMC) 98 % of control | [2] 93 % of control | [3] 95 % of control | [4] 95 % of control

CC(=O)Nc1ccc(S(=O)(=O)c2ccc(NC(C)=O)cc2)cc1
inactive: dose: 50.0 mg/kg/injection, schedule: Q01DX009 (ip), vehicle: Klucel (hydroxypropylcellulose) (HPC) 103 % of control | [5] 93 % of control | [6] 97 % of control

CCOc1ccn(CC(=O)N2CCOCC2)c(=O)n1
inactive: dose: 100.0 mg/kg/injection, schedule: Q01DX009 (ip), vehicle: water 93 % of control | dose: 100.0 mg/kg/injection, schedule: Q04DX003 (ip), vehicle: water 105 % of control | dose: 200.0 mg/kg/injection, schedule: Q01DX009 (ip), vehicle: water 95 % of control | dose: 200.0 mg/kg/injection, schedule: Q04DX003 (ip), vehicle: water 100 % of control | dose: 400.0 mg/kg/injection, schedule: Q01DX009 (ip), vehicle: water 98 % of control | dose: 400.0 mg/kg/injection, schedule: Q04DX003 (ip), vehicle: water 95 % of control

COC(=O)OCCOC(=O)OC
inactive: [7] 105 % of control | [8] 100 % of control | [9] 101 % of control | [10] 102 % of control | [11] 100 % of control | [12] 103 % of control

c1cc2c(cc1-c1nnc(-c3ccc4c(c3)OCO4)nn1)OCO2
inactive: dose: 400.0 mg/kg/injection, schedule: Q01DX001 (ip), vehicle: saline with Tween-80 86 % of control

C=CCOc1c(C)cc(C)cc1/C=C/C
inactive: dose: 100.0 mg/kg/injection, schedule: Q04DX003 (ip), vehicle: saline with Tween-80 94 % of control | dose: 200.0 mg/kg/injection, schedule: Q04DX003 (ip), vehicle: saline with Tween-80 97 % of control | dose: 400.0 mg/kg/injection, schedule: Q04DX003 (ip), vehicle: saline with Tween-80 96 % of control

C1CC2CCC1CNC2
inactive: dose: 50.0 mg/kg/injection, schedule: Q04DX003 (ip), vehicle: saline 104 % of control | [8] 106 % of control

CCCCCCCCCCC1CCC2C(C1)CC1C3CCCCC3CC21 (configuration not stated)
inactive: [13] 97 % of control | [14] 97 % of control | [15] 96 % of control

CCOC(=O)C(=CC(CC)(C(=O)OCC)C(=O)OCC)C(=O)OCC
inactive: [13] 101 % of control | [14] 97 % of control | [15] 95 % of control

O=C(COc1ccccc1)Nc1cccc(C(=O)O)c1
inactive: [16] 104 % of control | [17] 93 % of control | [18] 109 % of control

O=C1NN=C(c2ccccc2)CC1c1ccccc1 (configuration not stated)
inactive: dose: 100.0 mg/kg/injection, schedule: Q01DX001 (ip), vehicle: Klucel (hydroxypropylcellulose) (HPC) 100 % of control | [16] 101 % of control | dose: 200.0 mg/kg/injection, schedule: Q01DX001 (ip), vehicle: Klucel (hydroxypropylcellulose) (HPC) 97 % of control | [17] 96 % of control | dose: 400.0 mg/kg/injection, schedule: Q01DX001 (ip), vehicle: Klucel (hydroxypropylcellulose) (HPC) 100 % of control | [18] 93 % of control

O=S(=O)(O)/C(=C\c1ccccc1)c1ccccc1 (tested in a mixture with another compound)
inactive: [13] 103 % of control | dose: 100.0 mg/kg/injection, schedule: Q04DX003 (ip), vehicle: other 106 % of control | [14] 104 % of control | dose: 200.0 mg/kg/injection, schedule: Q04DX003 (ip), vehicle: other 106 % of control | dose: 264.0 mg/kg/injection, schedule: Q01DX001 (ip), vehicle: other 108 % of control | [1] 94 % of control | [15] 115 % of control

CS(=O)(=O)c1ccc2c(c1)-c1ccc(N)cc1C2=O
inactive: [2] 117 % of control | [3] 102 % of control | [4] 102 % of control

O=C1c2cccc3cccc(c23)C(=O)N1Cc1ccco1
inactive: [5] 94 % of control | [6] 89 % of control | dose: 400.0 mg/kg/injection, schedule: Q01DX009 (ip), vehicle: Klucel (hydroxypropylcellulose) (HPC) 93 % of control

O=C(Nc1cccnc1)c1ccccc1
inactive: dose: 6.25 mg/kg/injection, schedule: Q04DX003 (ip), vehicle: saline with Tween-80 92 % of control | dose: 12.5 mg/kg/injection, schedule: Q04DX003 (ip), vehicle: saline with Tween-80 97 % of control | dose: 25.0 mg/kg/injection, schedule: Q04DX003 (ip), vehicle: saline with Tween-80 99 % of control

Cl/C(=N\Nc1ccccc1)c1ccccc1
inactive: dose: 3.52 mg/kg/injection, schedule: Q01DX009 (ip), vehicle: saline sonified 100 % of control | dose: 5.28 mg/kg/injection, schedule: Q01DX009 (ip), vehicle: saline sonified 105 % of control | dose: 7.5 mg/kg/injection, schedule: Q01DX001 (ip), vehicle: Klucel (hydroxypropylcellulose) (HPC) 98 % of control | dose: 8.0 mg/kg/injection, schedule: Q01DX009 (ip), vehicle: saline sonified 100 % of control | dose: 12.0 mg/kg/injection, schedule: Q01DX009 (ip), vehicle: saline sonified 108 % of control | dose: 15.0 mg/kg/injection, schedule: Q01DX001 (ip), vehicle: Klucel (hydroxypropylcellulose) (HPC) 105 % of control | dose: 15.0 mg/kg/injection, schedule: Q01DX009 (ip), vehicle: saline sonified 111 % of control | dose: 30.0 mg/kg/injection, schedule: Q01DX001 (ip), vehicle: Klucel (hydroxypropylcellulose) (HPC) 105 % of control | dose: 30.0 mg/kg/injection, schedule: Q01DX009 (ip), vehicle: saline sonified 118 % of control

CNC(=S)N/N=C(\C=N\NC(=S)NC)c1ccc(OC)cc1
inactive: dose: 100.0 mg/kg/injection, schedule: Q04DX002 (ip), vehicle: Klucel (hydroxypropylcellulose) (HPC) 101 % of control | dose: 200.0 mg/kg/injection, schedule: Q04DX002 (ip), vehicle: Klucel (hydroxypropylcellulose) (HPC) 101 % of control | dose: 400.0 mg/kg/injection, schedule: Q04DX002 (ip), vehicle: Klucel (hydroxypropylcellulose) (HPC) 105 % of control

CC(=O)NC1CCC(=O)C=C1c1ccccc1 (configuration not stated)
inactive: [13] 96 % of control | [14] 107 % of control | [15] 94 % of control

Cc1cccc(C(=O)OCc2ccccc2CN2CCCC2)c1
inactive: dose: 100.0 mg/kg/injection, schedule: Q04DX002 (ip), vehicle: saline 93 % of control | dose: 200.0 mg/kg/injection, schedule: Q04DX002 (ip), vehicle: saline 104 % of control

COC1=C(C(=O)O)P(C)(=O)CC1 (configuration not stated)
inactive: dose: 50.0 mg/kg/injection, schedule: Q04DX002 (ip), vehicle: saline with Tween-80 95 % of control | dose: 100.0 mg/kg/injection, schedule: Q04DX002 (ip), vehicle: saline with Tween-80 98 % of control | dose: 200.0 mg/kg/injection, schedule: Q04DX002 (ip), vehicle: saline with Tween-80 95 % of control

CC(C)=CCCNC(=O)NS(=O)(=O)c1ccc(C)cc1
inactive: [16] 99 % of control | [17] 101 % of control | [18] 97 % of control

CC(C)CC(N)C(=O)OCc1ccccc1 (configuration not stated)
inactive: [7] 105 % of control | [8] 97 % of control | [9] 107 % of control | [10] 101 % of control | [11] 98 % of control | [12] 97 % of control
